Source: ChEMBL document CHEMBL1201862, “PubChem BioAssay data set” (2004)
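Briefly, cells in 96-well plates were exposed to five compound concentrations for 48 h, and endpoints were estimated by linear interpolation. GI50: concentration for 50% inhibition of growth.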 Activity calls are given as the source filed them. Rule as the data show it: active = GI50 up to about 1.1 µM and inactive = higher.

Key:
Test in all cases: NCI tumour cell line growth inhibition, 48 h
786-0 = test system: 786-0
HL-60 = test system: HL-60
HOP-62 = test system: HOP-62
Hs-578T = test system: Hs-578T
LOX IMVI = test system: LOX IMVI
MDA-MB-231 = test system: MDA-MB-231
MDA-MB-435 = test system: MDA-MB-435
Malme-3M = test system: Malme-3M
OVCAR-3 = test system: OVCAR-3
PC-3 = test system: PC-3
RPMI-8226 = test system: RPMI-8226
RXF 393 = test system: RXF 393
SF-268 = test system: SF-268
SK-MEL-28 = test system: SK-MEL-28
SN12C = test system: SN12C
TK-10 = test system: TK-10
UACC-62 = test system: UACC-62
HCT-15 = test system: HCT-15
SNB-75 = test system: SNB-75
A498 = test system: A498

O=C(OC1C2OC(=O)c3cc(O)c(O)c(O)c3Oc3cc4c(c(O)c3O)-c3c(cc(O)c(O)c3O)C(=O)OCC3OC(O)C(OC(=O)c5cc(O)c(O)c(O)c5Oc5cc6c(c(O)c5O)-c5c(cc(O)c(O)c5O)C(=O)OC1C(COC6=O)OC2O)C(OC(=O)c1cc(O)c(O)c(O)c1)C3OC4=O)c1cc(O)c(O)c(O)c1 (stereo unspecified)
GI50 (786-0): 21 µM (inactive)
GI50 (HL-60): 16.2 µM (inactive)
GI50 (HOP-62): 23.4 µM (inactive)
GI50 (Hs-578T): 32.3 µM (inactive)
GI50 (LOX IMVI): 17.9 µM (inactive)
GI50 (MDA-MB-231): 19.6 µM (inactive)
GI50 (MDA-MB-435): 21.4 µM (inactive)
GI50 (Malme-3M): > 100 µM (inactive)
GI50 (OVCAR-3): 25.8 µM (inactive)
GI50 (PC-3): 20 µM (inactive)
GI50 (RPMI-8226): 4.59 µM (inactive)
GI50 (RXF 393): 21.9 µM (inactive)
GI50 (SF-268): 26.4 µM (inactive)
GI50 (SK-MEL-28): 76.7 µM (inactive)
GI50 (SN12C): 26.7 µM (inactive)
GI50 (TK-10): 38.7 µM (inactive)
GI50 (UACC-62): 28.4 µM (inactive)

C=C(CO)[C@H]1CC/C(C)=C/CC/C(C)=C/C/C=C(\C)[C@H](O)C1
GI50 (786-0): 17.3 µM (inactive)
GI50 (HCT-15): 50 µM
GI50 (HOP-62): > 100 µM (inactive)
GI50 (Hs-578T): 25.5 µM (inactive)
GI50 (LOX IMVI): 27.5 µM (inactive)
GI50 (MDA-MB-231): 21.6 µM (inactive)
GI50 (MDA-MB-435): 18.6 µM (inactive)
GI50 (OVCAR-3): 33.7 µM (inactive)
GI50 (PC-3): 41.8 µM (inactive)
GI50 (RPMI-8226): 20 µM (inactive)
GI50 (RXF 393): 19.9 µM (inactive)
GI50 (SF-268): 22.2 µM (inactive)
GI50 (SK-MEL-28): 16 µM (inactive)
GI50 (SN12C): 33.3 µM (inactive)
GI50 (SNB-75): 31 µM (inactive)
GI50 (TK-10): 20.6 µM (inactive)
GI50 (UACC-62): 23 µM (inactive)

CC(C)C1CC[C@H](C)C[C@@H]1OC(=O)C(C(=O)O[C@H]1C[C@@H](C)CCC1C(C)C)C(O)[C@@H]1OC(C)(C)O[C@H]1C1COC(C)(C)O1 (stereo partly specified)
GI50 (786-0): 16.6 µM (inactive)
GI50 (HCT-15): 20.7 µM
GI50 (HL-60): 16.7 µM (inactive)
GI50 (HOP-62): 19.7 µM (inactive)
GI50 (Hs-578T): 15 µM (inactive)
GI50 (LOX IMVI): 16.8 µM (inactive)
GI50 (MDA-MB-231): 17 µM (inactive)
GI50 (MDA-MB-435): 16.6 µM (inactive)
GI50 (Malme-3M): 17.1 µM (inactive)
GI50 (OVCAR-3): 19.9 µM (inactive)
GI50 (PC-3): > 10 µM (inactive)
GI50 (RPMI-8226): 16.7 µM (inactive)
GI50 (RXF 393): 14.7 µM (inactive)
GI50 (SF-268): 19.9 µM (inactive)
GI50 (SK-MEL-28): 18.3 µM (inactive)
GI50 (SN12C): 16.5 µM (inactive)
GI50 (SNB-75): 15.7 µM (inactive)
GI50 (TK-10): 20 µM (inactive)
GI50 (UACC-62): 18.8 µM (inactive)

O=C1C(Cl)C(c2cccc(Cl)c2)N1c1ccc(-n2c(S)nc3ccccc3c2=O)cc1 (stereo unspecified)
GI50 (786-0): 19 µM (inactive)
GI50 (HCT-15): 1.02 µM
GI50 (HL-60): 22.1 µM (inactive)
GI50 (HOP-62): 23.9 µM (inactive)
GI50 (Hs-578T): 20.2 µM (inactive)
GI50 (LOX IMVI): 13.9 µM (inactive)
GI50 (MDA-MB-231): 20 µM (inactive)
GI50 (MDA-MB-435): 15.7 µM (inactive)
GI50 (Malme-3M): 40.2 µM (inactive)
GI50 (OVCAR-3): 30.5 µM (inactive)
GI50 (PC-3): 27.7 µM (inactive)
GI50 (RPMI-8226): 17.9 µM (inactive)
GI50 (RXF 393): 4.08 µM (inactive)
GI50 (SF-268): 12.6 µM (inactive)
GI50 (SN12C): 15.8 µM (inactive)
GI50 (TK-10): 29.6 µM (inactive)
GI50 (UACC-62): 14.8 µM (inactive)

CC12OC3(C(O)C1O)C(C(=O)O[C@H]3CO[Si](C)(C)C(C)(C)C)C2S(=O)(=O)c1ccccc1 (stereo partly specified)
GI50 (786-0): 71.1 µM (inactive)
GI50 (A498): > 100 µM (inactive)
GI50 (HCT-15): 33.7 µM
GI50 (HL-60): 25.9 µM (inactive)
GI50 (HOP-62): > 100 µM (inactive)
GI50 (Hs-578T): 30 µM (inactive)
GI50 (LOX IMVI): 18.7 µM (inactive)
GI50 (MDA-MB-231): 60.3 µM (inactive)
GI50 (MDA-MB-435): 34.4 µM (inactive)
GI50 (OVCAR-3): 40.6 µM (inactive)
GI50 (PC-3): 26.9 µM (inactive)
GI50 (RPMI-8226): 27.1 µM (inactive)
GI50 (SF-268): 47.4 µM (inactive)
GI50 (SK-MEL-28): 56 µM (inactive)
GI50 (SN12C): > 100 µM (inactive)
GI50 (SNB-75): 13.9 µM (inactive)
GI50 (TK-10): 59.8 µM (inactive)
GI50 (UACC-62): 16.1 µM (inactive)

CCNC1=C(NC(=O)c2ccc(F)cc2)C(=O)c2ccccc2C1=O
GI50 (786-0): > 100 µM (inactive)
GI50 (HCT-15): 30.5 µM
GI50 (HL-60): 40.3 µM (inactive)
GI50 (HOP-62): > 100 µM (inactive)
GI50 (Hs-578T): > 100 µM (inactive)
GI50 (MDA-MB-231): 44.8 µM (inactive)
GI50 (MDA-MB-435): 18.2 µM (inactive)
GI50 (Malme-3M): 19.2 µM (inactive)
GI50 (OVCAR-3): 36.6 µM (inactive)
GI50 (PC-3): 17.3 µM (inactive)
GI50 (RPMI-8226): > 100 µM (inactive)
GI50 (RXF 393): 29.4 µM (inactive)
GI50 (SF-268): > 100 µM (inactive)
GI50 (SK-MEL-28): > 100 µM (inactive)
GI50 (SN12C): 38.7 µM (inactive)
GI50 (SNB-75): 62.2 µM (inactive)
GI50 (TK-10): > 100 µM (inactive)
GI50 (UACC-62): 15.1 µM (inactive)
